{
  "source": "ChEMBL document CHEMBL1155094",
  "about": "“Isosteric exchange of the acylsulfonamide moiety in Abbott's Bcl-XL protein interaction antagonist” (Bioorg Med Chem Lett, 2008)",
  "data": [
    {"molecular_target": "T1, Bcl-2-like protein 2 (Homo sapiens, UniProt Q92843)", "T1 sequence (Q92843 whole entry)": "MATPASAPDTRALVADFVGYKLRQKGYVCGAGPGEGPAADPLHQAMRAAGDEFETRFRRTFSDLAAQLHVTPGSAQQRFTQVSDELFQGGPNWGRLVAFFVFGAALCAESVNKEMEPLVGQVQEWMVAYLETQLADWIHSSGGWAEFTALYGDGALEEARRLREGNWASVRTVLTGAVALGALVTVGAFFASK", "experiment": "Inhibition of 5-carboxyfluorescein-labeled Flu-Bak-BH3 peptide binding to Bcl-w by fluorescence polarization assay", "units": {"Ki": "µM"}, "values": [
      {"smiles": "CN(CC(=O)Nc1ccc(N2CCCCC2)c([N+](=O)[O-])c1)C(=O)c1ccc(-c2ccccc2)cc1", "Ki": 10.8},
      {"smiles": "CN(CC(=O)Nc1ccc(N2CCSCC2)c([N+](=O)[O-])c1)C(=O)c1ccc(-c2ccccc2)cc1", "Ki": 13},
      {"smiles": "CN(CC(=O)Nc1ccc(NC23CC4CC(CC(C4)C2)C3)c([N+](=O)[O-])c1)C(=O)c1ccc(-c2ccccc2)cc1", "Ki": 9.43}
    ]}
  ]
}
